Source: patent publication US11351185B2, “Use of isovalerylspiramycins as anti-cancer agents to inhibit metastasis” (priority 2020, dated 2022)
Entries after “also recorded” stand apart in the source; their conditions may differ.

Experiments:
[1] = test system: murine B16 cells (lung metastasis); assay: B16 melanoma lung metastasis mouse model; format: in vivo, C57BL/6 mice; conditions: 35 mg/kg i.p. every day, 12 days; vs saline
Description: In addition to the aforementioned xenograft tumor models, the anti-tumor activity of ISP I was assessed in a metastatic murine melanoma (B16) model.
For metastasis study, C57BL/6 mice (4-5 weeks) from Charles River Laboratories (Wilmington, Mass. USA) were assigned randomly to one or another of two groups, 9 animals per group. B16-F10 mouse skin melanoma cells (2×10^5) were resuspended in 100 μl saline and injected through tail vein. After treatment with ISP I at 35 mg/kg for 12 days, all mice were euthanized, and the lungs were examined for counting black metastasis dots.

[2] = test system: in vivo cancer parameters; conditions: animal models; cited from earlier work
[3] = test system: other proteins (antioxidant components); assay: Surface plasmon resonance (SPR) assay, other antioxidant components; format: binding
SELH [4] = molecular target: T1, SELH (Homo sapiens, UniProt Q8IZQ5); assay: Western blot of SELH protein level in treated cells; format: cell-based; design: endogenous in cells; host or cells: LN229, 786-O, T98G, U118, U251, RCC4; conditions: for SELH protein expression, different concentrations: LN229 cells, 24 hours post-treatment
T1 sequence (Q8IZQ5 1-122): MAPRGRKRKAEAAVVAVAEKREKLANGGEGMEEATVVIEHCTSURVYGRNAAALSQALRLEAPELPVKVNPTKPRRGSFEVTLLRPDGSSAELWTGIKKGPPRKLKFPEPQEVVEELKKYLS
Description: A cycloheximide (CHX) chase assay was completed to assess ISP I's effect on SELH protein degradation.
(§1) Western blotting was performed to detect the protein expression level of SELH, NRF2 and γH2AX regulated by ISP I. The cells were lysed by RIPA buffer from ThermoFisher Scientific, and the concentration was measured using DC Protein Assay, a Bio-Rad product. Equal amounts of protein of each sample were loaded for gel electrophoresis and were transferred to nitrocellulose membrane, blocked and incubated overnight at 4° C. with primary antibodies. Then the membranes were washed with TBST (3 times, 10 min each). Exposure, imaging, and data analysis were done using a KwikQuant Imager system, a product of Kindle Biosciences (Greenwich, Conn. USA). The following antibodies were used: anti-phospho-histone H2A.X (Ser139), anti-NRF2 (Cell Signaling, Danvers, Mass. USA), anti-SELH (Abcam, Cambridge, Mass. USA), anti-GAPDH (Millipore, Temecula, Calif. USA).

[5] = test system: SELH, Nucleolin, Fibrillarin, POL1, NPM, p53; assay: Nucleolar stress response, immunofluorescence and western blot; format: cell-based; conditions: LN229
Description: SELH is localized in the nucleolus, which is a sensor of oxidative stress. Yang et al., Nature communications 7: 13599 (2016); Novoselov et al., J. Biol. Chem. 282: 11960 (2007). […] JNK2 activation by oxidative stress inactivated RNA polymerase I (POL1) transcription factor TIF1A in the nucleoli to down-regulate rRNA synthesis. Mayer et al., Genes Dev. 19: 933 (2005). To investigate whether the ribosomal biogenesis was disrupted by ISP I, pre-rRNA transcription was evaluated using real-time RT-PCR analysis in LN229 cells. […] To examine the mechanisms by which ISP I disrupts POL1 transcription, the inventors initially evaluated JNK2 activity and the overall state of the transcription machinery in ISP I-treated LN229 cells.
as §1
For immunofluorescence assay, cells were seeded on a 35-mm confocal dish with glass bottom and were treated with ISP I. After 24 hours, cells were fixed with 4% paraformaldehyde and were labeled with primary antibodies against γH2AX overnight at 4° C. Then the cells were incubated with secondary antibody conjugated with Alexa Fluor-594 (Invitrogen), followed by staining with DAPI for nuclei. Images were obtained using Zeiss LSM 780 microscopy (Carl Zeiss, Oberkochen Germany).

NRF2, HMOX1, NQO1 = assay: Real time RT-PCR of NRF2 and downstream genes; format: cell-based; conditions: for NRF2 expression (RT-PCR): 24 hours
Description: NRF2 (NFE2L2) is a transcription factor that regulates redox homeostasis by binding to the regulatory regions of antioxidant response elements (ARE). […] Glioblastoma (LN229 and U251) cells and RCC (786-O and RCC4) cells were treated with ISP I and evaluated for NRF2 expression levels. […] Considering this finding, the inventors evaluated SELH's regulatory role on NRF2 by measuring NRF2 expression in cells that either overexpressed or had silenced SELH expression.
Total RNA was extracted using PureLink RNA Mini Kit, a product of ThermoFisher Scientific (Waltham, Mass. USA), according manufacturer's protocol. First strand cDNA was synthesized with iScript cDNA Synthesis Kit, a product of Bio-Rad (Hercules, Calif. USA). Then the inventors performed real time PCR by SsoAdvanced Universal SYBR Green Supermix kit, a product of Bio-Rad, to quantify the expression levels of genes NRF2, HMOX1, and NQO1. The primer sequences are described in Liu et al., J. Nat'l Cancer Inst. 111: 1033 (2019). Data were analyzed and normalized to 18s rRNA as the reference gene for further statistics.

SELH [6] = molecular target: T1, SELH; assay: Cellular thermal shift assay (CETSA) / thermo-stability assay; format: binding; design: endogenous in cells; host or cells: LN229, 786-O; conditions: vs DMSO
Excerpt: Next, the inventors used a thermo-stability assay to confirm SELH was targeted by ISP I in LN229 and 786-O cell lines. The principle of the assay is based on altered protein thermal stabilization/destabilization due to ligand binding in living cells. […] (FIG. 5B and FIG. 6A). To verify further the specificity of ISP I's targeting of SELH, the inventors designed a surface plasmon resonance assay to assess the interaction of ISP I with SELH synthesized in bacteria.
CETSA experiments were performed to determine the ISP I-related ligand induced shifts. Intact and live cells in a 10-cm dish were harvested, washed and resuspended in PBS with protease inhibitor cocktail. Protein of the cells was extracted by freeze-thaw more than three times, using liquid nitrogen. The supernatant was centrifuged at 20, 000 g for 20 min at 4° C. Then the samples were aliquoted to several groups incubated with different concentrations of ISP I for 1 hour. After that, samples were aliquoted into PCR tubes and thereafter heated at gradient temperature ranging from 40° C. to 80° C. for 3 min. Then the samples were centrifuged again and resolved using 4-12% SDS-PAGE followed by western blot experiments.

## COC1C(O)CC(=O)OC(C)CC=CC=CC(OC2CCC(N(C)C)C(C)O2)C(C)CC(CC=O)C1OC1OC(C)C(OC2CC(C)(O)C(OC(=O)CC(C)C)C(C)O2)C(N(C)C)C1O (stereo not shown) [ISP I, 4″-isolvalerylspiramycin I]
[1]
  lung tumor nodules (melanoma spots): significantly reduced lung tumor nodules
[2]
  in vivo cancer parameters such as tumor growth rate and relative tumor volume: reduction
[3]
  binding to other proteins (SPR): does not bind with the other proteins
SELH [4]; 786-O and RCC4, 10 μg/ml, 24 hours
  SELH protein levels in RCC cell lines: decreased SELH levels; also recorded: inhibitory effect on SELH expression also was confirmed
SELH [4]
  SELH protein expression, different concentrations: reduced SELH protein expression in LN229 cells in a dose-dependent manner
SELH [4]; listed as ISP 1
  SELH protein expression, different concentrations: decline, in a dose-dependent manner, of SELH levels
SELH [4]; T98G, U118, LN229, U251, 10 μg/mL, 24 hours
  SELH protein levels in glioblastoma cell lines: decreased SELH levels; also recorded: inhibitory effect on SELH expression also was confirmed
[5]
  NPM expression (western blot): decreased nucleolar protein, NPM and P53 expression in a dose dependent manner; also recorded: reduced NMP expression
[5]; 8 h, 10 μg/mL
  SELH expression in the nucleolus (immunofluorescence): loss and reduction of SELH expression in the nucleolus
  nucleolar labeling of Nucleolin, Fibrillarin, POL1, NPM (immunofluorescence): loss and dispersion of nucleolar proteins (Neucleolin, Fibrillarin, POL1, NPM)
NRF2, HMOX1, NQO1; 786-O and RCC4
  expression of NRF2 downstream genes HMOX1 and NQO1: increase in expression of the NRF2 downstream genes HMOX1 and NQO1; also recorded: significant increase in the downstream targets of NRF2 signaling
NRF2, HMOX1, NQO1; 786-O and RCC4, 10 μg/ml
  NRF2 expression (RT-PCR): increase in NRF2 expression; also recorded: NRF2 expression was significantly upregulated
NRF2, HMOX1, NQO1; LN229 and U251
  expression of NRF2 downstream genes HMOX1 and NQO1: increase of the expression of NRF2 downstream genes HMOX1 and NQO1; also recorded: significant increase in the downstream targets of NRF2 signaling
NRF2, HMOX1, NQO1; LN229 and U251, 10 μg/mL
  NRF2 expression (RT-PCR): increase in NRF2 expression; also recorded: NRF2 expression was significantly upregulated
SELH [6]; 786-O cells
  thermal stabilisation of SELH (western blot): ISP I-protected SELH was observed along with a rise in temperature; also recorded: protective effect of ISP I on SELH was present over a range of increasing temperatures
SELH [6]; LN229 cells
  thermal stabilisation of SELH (western blot): ISP I-protected SELH was observed along with the rise of temperature; also recorded: protective effect of ISP I on SELH was present over a range of increasing temperatures
